{"source": "paper PMC5218480", "about": "(PLoS ONE, 2017)", "system": "MV-4-11 cells", "experiment": "Gene expression microarray analysis (Affymetrix PrimeView) and GSEA", "format": "cell-based, human", "parameters": "RFU PODN (11730768_x_at) / Fold change /veh PODN (11730768_x_at) / RFU LINC00158 (11744669_a_at) / Fold change /veh LINC00158 (11744669_a_at) / RFU DUSP10 (11751237_a_at) / Fold change /veh DUSP10 (11751237_a_at) / RFU ID3 (11757404_x_at) / Fold change /veh ID3 (11757404_x_at) / RFU PLEKHG5 (11737974_s_at) / Fold change /veh PLEKHG5 (11737974_s_at) / RFU LRRC4B (11730491_at) / Fold change /veh LRRC4B (11730491_at) / RFU GIMAP4 (11747438_a_at) / Fold change /veh GIMAP4 (11747438_a_at) / RFU KRT8 (11758183_x_at) / Fold change /veh KRT8 (11758183_x_at) / RFU CNN1 (11734310_a_at) / Fold change /veh CNN1 (11734310_a_at) / RFU VPS37D (11726825_at) / Fold change /veh VPS37D (11726825_at) / RFU C10orf10 (11716522_x_at) / Fold change /veh C10orf10 (11716522_x_at) / RFU KIR2DL2 /// KIR2DL4 /// KIR2DL5A /// KIR2DL5B /// KIR2DS1 /// KIR2DS2 /// KIR2DS3 /// KIR2DS4 /// KIR3DL3 /// KIR3DL3 /// KIR3DS1 (11738374_at) / Fold change /veh KIR2DL2 /// KIR2DL4 /// KIR2DL5A /// KIR2DL5B /// KIR2DS1 /// KIR2DS2 /// KIR2DS3 /// KIR2DS4 /// KIR3DL3 /// KIR3DL3 /// KIR3DS1 (11738374_at) / RFU C1QL1 (11718748_at) / Fold change /veh C1QL1 (11718748_at) / RFU TMPRSS4 (11747572_a_at) / Fold change /veh TMPRSS4 (11747572_a_at) / RFU HAMP (11756126_x_at) / Fold change /veh HAMP (11756126_x_at) / RFU RNFT2 (11725882_a_at) / Fold change /veh RNFT2 (11725882_a_at) / RFU NR4A2 (11747474_a_at) / Fold change /veh NR4A2 (11747474_a_at) / RFU ABCC12 (11746883_a_at) / Fold change /veh ABCC12 (11746883_a_at) / RFU TMEM136 (11760407_x_at) / Fold change /veh TMEM136 (11760407_x_at) / RFU CLDN22 /// WWC2 (11732394_at) / Fold change /veh CLDN22 /// WWC2 (11732394_at) / RFU HLA-DPB1 (11760878_x_at) / Fold change /veh HLA-DPB1 (11760878_x_at) / RFU SPINT1 (11716480_a_at) / Fold change /veh SPINT1 (11716480_a_at) / RFU GAP43 (11754022_s_at) / Fold change /veh GAP43 (11754022_s_at) / RFU A4GNT (11735810_at) / Fold change /veh A4GNT (11735810_at) / RFU PRB3 (11715151_x_at) / Fold change /veh PRB3 (11715151_x_at) / RFU TUBB4B (11761932_at) / Fold change /veh TUBB4B (11761932_at) / RFU CAPN14 (11732068_a_at) / Fold change /veh CAPN14 (11732068_a_at) / RFU TMCC2 (11721928_a_at) / Fold change /veh TMCC2 (11721928_a_at) / RFU IRGQ (11745062_a_at) / Fold change /veh IRGQ (11745062_a_at) / RFU FAM174B (11720279_a_at) / Fold change /veh FAM174B (11720279_a_at) / RFU TMPRSS4 (11748680_a_at) / Fold change /veh TMPRSS4 (11748680_a_at) / RFU FAM212B (11763350_a_at) / Fold change /veh FAM212B (11763350_a_at) / RFU PLEKHG5 (11743358_a_at) / Fold change /veh PLEKHG5 (11743358_a_at) / RFU ZSCAN30 (11745921_a_at) / Fold change /veh ZSCAN30 (11745921_a_at) / RFU CMKLR1 (11741424_a_at) / Fold change /veh CMKLR1 (11741424_a_at) / RFU LOC101060620 /// MAPK8IP1 (11723275_at) / Fold change /veh LOC101060620 /// MAPK8IP1 (11723275_at) / RFU SPTSSB (11747773_x_at) / Fold change /veh SPTSSB (11747773_x_at) / RFU PRSS12 (11739890_at) / Fold change /veh PRSS12 (11739890_at) / RFU BIN1 (11741810_x_at) / Fold change /veh BIN1 (11741810_x_at) / RFU WNT11 (11732464_a_at) / Fold change /veh WNT11 (11732464_a_at) / RFU C10orf10 (11716521_a_at) / Fold change /veh C10orf10 (11716521_a_at) / RFU C5orf56 (11738089_at) / Fold change /veh C5orf56 (11738089_at) / RFU CYB561 (11721691_x_at) / Fold change /veh CYB561 (11721691_x_at) / RFU ANKRD19P (11752326_a_at) / Fold change /veh ANKRD19P (11752326_a_at) / RFU OR2T12 /// OR2T33 /// OR2T8 (11738714_s_at) / Fold change /veh OR2T12 /// OR2T33 /// OR2T8 (11738714_s_at) / RFU VCAN (11748164_a_at) / Fold change /veh VCAN (11748164_a_at) / RFU JSRP1 (11732532_at) / Fold change /veh JSRP1 (11732532_at) / RFU KRTAP10-11 (11738290_x_at) / Fold change /veh KRTAP10-11 (11738290_x_at) / RFU MYO3A (11730013_a_at) / Fold change /veh MYO3A (11730013_a_at) / RFU EBF3 (11725865_a_at) / Fold change /veh EBF3 (11725865_a_at) / RFU CAMK2N1 (11719241_x_at) / Fold change /veh CAMK2N1 (11719241_x_at) / RFU C5orf56 (11738088_a_at) / Fold change /veh C5orf56 (11738088_a_at) / RFU OLFML3 (11715873_a_at) / Fold change /veh OLFML3 (11715873_a_at) / RFU LOC100653217 /// NTM (11731650_a_at) / Fold change /veh LOC100653217 /// NTM (11731650_a_at) / RFU MAPK11 (11762145_a_at) / Fold change /veh MAPK11 (11762145_a_at) / RFU FIZ1 (11724087_x_at) / Fold change /veh FIZ1 (11724087_x_at) / RFU OASL (11726364_x_at) / Fold change /veh OASL (11726364_x_at) / RFU SOX15 (11748057_x_at) / Fold change /veh SOX15 (11748057_x_at) / RFU CD79A (11719716_a_at) / Fold change /veh CD79A (11719716_a_at) / RFU HIST1H1D (11736915_at) / Fold change /veh HIST1H1D (11736915_at) / RFU CASKIN2 (11723855_a_at) / Fold change /veh CASKIN2 (11723855_a_at) / RFU LOC730098 (11760151_x_at) / Fold change /veh LOC730098 (11760151_x_at) / RFU OR4N2 (11742367_at) / Fold change /veh OR4N2 (11742367_at) / RFU PRRT2 (11749266_a_at) / Fold change /veh PRRT2 (11749266_a_at) / RFU SNX32 (11753110_a_at) / Fold change /veh SNX32 (11753110_a_at) / RFU CDHR5 (11726645_a_at) / Fold change /veh CDHR5 (11726645_a_at) / RFU RCAN1 (11760418_a_at) / Fold change /veh RCAN1 (11760418_a_at) / RFU FAM167A (11723789_a_at) / Fold change /veh FAM167A (11723789_a_at) / RFU FAM26E (11764081_at) / Fold change /veh FAM26E (11764081_at) / RFU ISYNA1 (11749810_s_at) / Fold change /veh ISYNA1 (11749810_s_at) / RFU ACY1 (11761880_at) / Fold change /veh ACY1 (11761880_at) / RFU 11764098_at / Fold change /veh 11764098_at / RFU SAMD14 (11745864_x_at) / Fold change /veh SAMD14 (11745864_x_at) / RFU NPB (11741838_a_at) / Fold change /veh NPB (11741838_a_at) / RFU TMPRSS6 (11731388_a_at) / Fold change /veh TMPRSS6 (11731388_a_at) / RFU KRTAP10-2 (11738614_at) / Fold change /veh KRTAP10-2 (11738614_at) / RFU ARHGAP8 /// PRR5-ARHGAP8 (11727945_x_at) / Fold change /veh ARHGAP8 /// PRR5-ARHGAP8 (11727945_x_at) / RFU KRTAP5-7 /// NADSYN1 (11734609_at) / Fold change /veh KRTAP5-7 /// NADSYN1 (11734609_at) / RFU RASL12 (11751679_a_at) / Fold change /veh RASL12 (11751679_a_at) / RFU CDKN2B (11736163_a_at) / Fold change /veh CDKN2B (11736163_a_at) / RFU PRF1 (11729649_at) / Fold change /veh PRF1 (11729649_at) / RFU, ZNF638 /// ZNF638-IT1 / Fold change vs veh, ZNF638 /// ZNF638-IT1 / RFU, PANK3 / Fold change vs veh, PANK3 / RFU, SH3YL1 / Fold change vs veh, SH3YL1 / RFU, ZEB2 / Fold change vs veh, ZEB2 / RFU, NRIP1 / Fold change vs veh, NRIP1 / RFU, PTTG1IP / Fold change vs veh, PTTG1IP / RFU, CAPN2 / Fold change vs veh, CAPN2 / RFU, MED14 / Fold change vs veh, MED14 / RFU, SNORA58 / Fold change vs veh, SNORA58 / RFU, C1orf63 / Fold change vs veh, C1orf63 / RFU, LRRFIP1 / Fold change vs veh, LRRFIP1 / RFU, NDUFAF7 / Fold change vs veh, NDUFAF7 / RFU, SLC12A2 / Fold change vs veh, SLC12A2 / RFU, IBTK / Fold change vs veh, IBTK / RFU, ESF1 / Fold change vs veh, ESF1 / Fold change vs veh, TMEM50B / RFU, TAOK1 / Fold change vs veh, TAOK1 / RFU, ACBD3 / Fold change vs veh, ACBD3 / RFU, TMA16 / Fold change vs veh, TMA16 / RFU, RWDD3 / Fold change vs veh, RWDD3 / RFU, BCAT1 / Fold change vs veh, BCAT1 / RFU, EDEM3 / Fold change vs veh, EDEM3 / RFU, TMEM33 / Fold change vs veh, TMEM33 / RFU, WDR75 / Fold change vs veh, WDR75 / RFU, AHCTF1 / Fold change vs veh, AHCTF1 / RFU, TFRC / Fold change vs veh, TFRC / RFU, ZDHHC17 / Fold change vs veh, ZDHHC17 / RFU, NOM1 / Fold change vs veh, NOM1 / RFU, ARL8B / Fold change vs veh, ARL8B / RFU, ZBTB11 / Fold change vs veh, ZBTB11 / RFU, TAMM41 / Fold change vs veh, TAMM41 / RFU, KIAA1704 /// LOC100996395 / Fold change vs veh, KIAA1704 /// LOC100996395 / RFU, ING1 / Fold change vs veh, ING1 / RFU, TRMT61B / Fold change vs veh, TRMT61B / RFU, FUBP3 / Fold change vs veh, FUBP3 / RFU, TP53 / Fold change vs veh, TP53 / RFU, TNKS2 / Fold change vs veh, TNKS2 / RFU, ZFP14 / Fold change vs veh, ZFP14 / RFU, ACTR2 / Fold change vs veh, ACTR2 / RFU, PPP3R1 / Fold change vs veh, PPP3R1 / RFU, PIK3R1 / Fold change vs veh, PIK3R1 / RFU, HNRNPA1 / Fold change vs veh, HNRNPA1 / RFU, RNF170 / Fold change vs veh, RNF170 / RFU, ZNF28 / Fold change vs veh, ZNF28 / RFU, RNGTT / Fold change vs veh, RNGTT / RFU, OGT / Fold change vs veh, OGT / RFU, BRD1 / Fold change vs veh, BRD1 / RFU, MARS / Fold change vs veh, MARS / RFU, ZNF655 / Fold change vs veh, ZNF655 / RFU, FAHD1 / Fold change vs veh, FAHD1 / RFU, BDP1 / Fold change vs veh, BDP1 / RFU, LRRCC1 / Fold change vs veh, LRRCC1 / RFU, ARID1A / Fold change vs veh, ARID1A / RFU, ZNF146 / Fold change vs veh, ZNF146 / RFU, ZNF330 / Fold change vs veh, ZNF330 / RFU, GPN3 / Fold change vs veh, GPN3 / RFU, C9orf123 / Fold change vs veh, C9orf123 / RFU, N4BP2L2 / Fold change vs veh, N4BP2L2 / RFU, ARFIP1 / Fold change vs veh, ARFIP1 / RFU, FAM179B / Fold change vs veh, FAM179B / RFU, BCL10 / Fold change vs veh, BCL10 / RFU, UHRF1BP1L / Fold change vs veh, UHRF1BP1L / RFU, BET1 / Fold change vs veh, BET1 / RFU, CNOT2 / Fold change vs veh, CNOT2 / RFU, ZNF268 / Fold change vs veh, ZNF268 / Fold change vs veh, ZNF507 / RFU, DGCR2 / Fold change vs veh, DGCR2 / RFU, WDSUB1 / Fold change vs veh, WDSUB1 / Fold change vs veh, HSP90B1 /// MIR3652 / RFU, ADSS / Fold change vs veh, ADSS / RFU, GK / Fold change vs veh, GK / RFU, ZNF148 / Fold change vs veh, ZNF148 / RFU, TAF9 / Fold change vs veh, TAF9 / RFU, SLC1A5 / Fold change vs veh, SLC1A5 / RFU, SLMO2 / Fold change vs veh, SLMO2 / RFU, ABCC4 / Fold change vs veh, ABCC4 / RFU, LOC101060439 /// RAP1B / Fold change vs veh, LOC101060439 /// RAP1B / RFU, RFX7 / Fold change vs veh, RFX7 / RFU, GTPBP10 / Fold change vs veh, GTPBP10 / RFU, CNEP1R1 / Fold change vs veh, CNEP1R1 / RFU, BIVM-ERCC5 /// ERCC5 / Fold change vs veh, BIVM-ERCC5 /// ERCC5 / RFU, ILF3 / Fold change vs veh, ILF3 / RFU 11762660_at / Fold change /veh 11762660_at / RFU VCAN (11757783_s_at) / Fold change /veh VCAN (11757783_s_at) / RFU DDX43 (11728927_at) / Fold change /veh DDX43 (11728927_at) / RFU KRT8 (11758188_x_at) / Fold change /veh KRT8 (11758188_x_at) / RFU NKD1 (11759106_at) / Fold change /veh NKD1 (11759106_at) / RFU SRD5A1 (11742802_a_at) / Fold change /veh SRD5A1 (11742802_a_at) / RFU TPSAB1 /// TPSB2 (11721975_s_at) / Fold change /veh TPSAB1 /// TPSB2 (11721975_s_at) / RFU GSTM3 (11746129_a_at) / Fold change /veh GSTM3 (11746129_a_at) / RFU IL23R (11737362_x_at) / Fold change /veh IL23R (11737362_x_at) / RFU TMEM51 (11727254_a_at) / Fold change /veh TMEM51 (11727254_a_at) / RFU PIWIL2 (11732686_x_at) / Fold change /veh PIWIL2 (11732686_x_at) / RFU ORM1 (11744905_x_at) / Fold change /veh ORM1 (11744905_x_at) / RFU CCDC152 (11743942_at) / Fold change /veh CCDC152 (11743942_at) / RFU ECM1 (11717891_a_at) / Fold change /veh ECM1 (11717891_a_at) / RFU IL23R (11748794_a_at) / Fold change /veh IL23R (11748794_a_at) / RFU TNFAIP8L3 (11732012_x_at) / Fold change /veh TNFAIP8L3 (11732012_x_at) / RFU MBOAT4 (11741988_at) / Fold change /veh MBOAT4 (11741988_at) / RFU 11764193_at / Fold change /veh 11764193_at / RFU TMEM53 (11763286_at) / Fold change /veh TMEM53 (11763286_at) / RFU MAGEB2 (11727129_at) / Fold change /veh MAGEB2 (11727129_at) / RFU TMEM200A (11744735_a_at) / Fold change /veh TMEM200A (11744735_a_at) / RFU CCDC152 (11751479_a_at) / Fold change /veh CCDC152 (11751479_a_at) / RFU FAM211A (11726209_a_at) / Fold change /veh FAM211A (11726209_a_at) / RFU RGS16 (11746705_a_at) / Fold change /veh RGS16 (11746705_a_at) / RFU VCAN (11755009_s_at) / Fold change /veh VCAN (11755009_s_at) / RFU RHOB (11743442_s_at) / Fold change /veh RHOB (11743442_s_at) / RFU RGS16 (11720943_a_at) / Fold change /veh RGS16 (11720943_a_at) / RFU RGS16 (11720944_at) / Fold change /veh RGS16 (11720944_at) / RFU, VPS4B / Fold change vs veh, VPS4B / RFU, CREB1 / Fold change vs veh, CREB1 / RFU, DNAJC13 / Fold change vs veh, DNAJC13 / RFU, GNAQ / Fold change vs veh, GNAQ / RFU, CDK5R1 / Fold change vs veh, CDK5R1 / RFU, ZRANB3 / Fold change vs veh, ZRANB3 / RFU, CUL4A / Fold change vs veh, CUL4A / RFU, CCNY / Fold change vs veh, CCNY / RFU, UFL1 / Fold change vs veh, UFL1 / RFU, COG3 / Fold change vs veh, COG3 / RFU, DIAPH2 / Fold change vs veh, DIAPH2 / RFU, SKA2 / Fold change vs veh, SKA2 / RFU, AFF3 / Fold change vs veh, AFF3 / RFU, LMF1 / Fold change vs veh, LMF1 / RFU, IPO11 / Fold change vs veh, IPO11 / RFU, DFFB / Fold change vs veh, DFFB / RFU, FOXP1 / Fold change vs veh, FOXP1 / RFU, CARD8 / Fold change vs veh, CARD8 / RFU, STRN3 / Fold change vs veh, STRN3 / RFU, ADK / Fold change vs veh, ADK / RFU, RASSF2 / Fold change vs veh, RASSF2 / RFU, WIPF1 / Fold change vs veh, WIPF1 / RFU, LARP1B / Fold change vs veh, LARP1B / RFU, RASA1 / Fold change vs veh, RASA1 / RFU, RB1 / Fold change vs veh, RB1 / RFU, PPFIA1 / Fold change vs veh, PPFIA1 / RFU, MAT2A / Fold change vs veh, MAT2A / RFU, CCT5 / Fold change vs veh, CCT5 / RFU, WDR92 / Fold change vs veh, WDR92 / RFU, CUX1 / Fold change vs veh, CUX1 / RFU, TTC7A / Fold change vs veh, TTC7A / RFU, TMEM135 / Fold change vs veh, TMEM135 / RFU, DEPTOR / Fold change vs veh, DEPTOR / RFU, CPM / Fold change vs veh, CPM / RFU, DNAJB6 / Fold change vs veh, DNAJB6 / RFU, CACNA2D3 / Fold change vs veh, CACNA2D3 / RFU, DTX4 / Fold change vs veh, DTX4 / RFU, TFCP2 / Fold change vs veh, TFCP2 / RFU, GMCL1 /// GMCL1P1 / Fold change vs veh, GMCL1 /// GMCL1P1 / RFU, AEBP2 / Fold change vs veh, AEBP2 / RFU, SNHG1 /// SNORD22 /// SNORD25 /// SNORD26 /// SNORD27 /// SNORD28 /// SNORD29 /// SNORD31 / Fold change vs veh, SNHG1 /// SNORD22 /// SNORD25 /// SNORD26 /// SNORD27 /// SNORD28 /// SNORD29 /// SNORD31 / Fold change (Aza/veh), C12orf56 (ProbeSet 11735607_a_at) / Fold change (ACY-1035/veh), C12orf56 (ProbeSet 11735607_a_at) / Fold change (Aza/veh), FGFR1OP (ProbeSet 11751329_s_at) / Fold change (ACY-1035/veh), FGFR1OP (ProbeSet 11751329_s_at) / Fold change (Aza/veh), VPS36 (ProbeSet 11739960_a_at) / Fold change (ACY-1035/veh), VPS36 (ProbeSet 11739960_a_at) / RFU SYPL1 (11715823_x_at) / Fold change /veh SYPL1 (11715823_x_at) / RFU IGFBP7 (11715501_s_at) / Fold change /veh IGFBP7 (11715501_s_at) / RFU REEP3 (11722064_at) / Fold change /veh REEP3 (11722064_at) / RFU IGLL1 (11728026_x_at) / Fold change /veh IGLL1 (11728026_x_at): dose or concentration left out as unconfirmed", "conditions": "ProbeSet 11727641_at; LIST B"}
{"smiles": "Nc1ncn([C@@H]2O[C@H](CO)[C@@H](O)[C@H]2O)c(=O)n1", "note": "[azacitidine]", "values": [{"measurement": "Fold change vs veh, NOM1", "value": 1.06}]}
